Results as given in the NIST ThermoML archive (doi:10.1021/je034062r).

Assay: xn = mol fraction of the nth substance listed
Details: for mass density: Liquid; for surface tension liquid-gas: Pendant drop shape

CC(C)=O [acetone] + Cc1ccccc1
Details	mass density, 283.15 K [kg/m3]	mass density, 288.15 K [kg/m3]	mass density, 293.15 K [kg/m3]	mass density, 298.15 K [kg/m3]	mass density, 303.15 K [kg/m3]	surface tension liquid-gas, 287.81 K [mN/m]	surface tension liquid-gas, 297.82 K [mN/m]	surface tension liquid-gas, 307.86 K [mN/m]
x2 = 0	803.2	798.2	792.6	787	781.2	23.94	22.78	21.59
x2 = 0.1	815.1	809.8	804.2	798.8	793.3	24.56	23.28	22.08
x2 = 0.2002	823.5	818.2	812.5	807.1	801.6	25.24	23.78	22.58
x2 = 0.3002	832.2	826.8	821.4	816.1	810.8	25.89	24.36	23.1
x2 = 0.3997	841.2	836.1	830.7	825.6	820.4	26.46	24.93	23.77
x2 = 0.4973	847.6	842.6	837.3	832.3	827.2	27.1	25.55	24.4
x2 = 0.6011	854.7	849.9	844.6	839.7	834.7	27.68	26	25
x2 = 0.7004	860.8	856	850.9	846.1	841.3	28.24	26.5	25.4
x2 = 0.7998	866.4	861.7	856.6	851.9	847.2	28.48	27.1	26
x2 = 0.8982	871.5	866.9	861.9	857.3	852.6	28.73	27.33	–
